From patent US20250172566A1, “SACCHARIDE SENSING SYSTEMS” (CARBOMETRICS LIMITED, priority 2022, published 2025)

Key:
[1] = Fluorescent hydrogel phase glucose responsive assay (10 mM PBS, pH 7.4, 310 K)
[2] = Affinity electrochemistry - cyclic voltammetry glucose responsive assay (10 mM PBS, pH 7.4, 298 K); details: for Applied potential / Current response: FIM 0.5 mM, reduction process
Protocol: Affinity electrochemistry measurements were made using a Metrohm Autolab PGSTAT101 potentiostat with a BIDSC-FET interface and screen-printed electrodes DRP-200BT. Data collection and analysis were performed using Nova software by Metrohm Autolab. Further analysis and processing were performed in Microsoft Excel. Measurements obtained at 298 K and at pH 7.4 unless otherwise stated.
Separate samples containing a mixture of GBM, FIM and D-glucose at various concentrations in 10 mM PBS were prepared. 50 μL of each sample was pipetted onto the surface of the screen-printed electrode and the cyclic voltammogram acquired using the CV staircase protocol within the Nova software, using the following settings: Start potential at −0.4 V, upper vertex potential at 0.6 V, lower vertex potential at −0.4 V, stop potential at −0.39756 V, number of scans=3, scan rate at 0.1 V/s and Step at 0.00244 V. The data for each voltammogram was exported into Microsoft excel, processed and compared to give the glucose responsive electrochemical results.
Changes in applied potential and current response were monitored using the reduction process observed during the cyclic voltammogram. Measurements obtained at 298 K and pH 7.4 in 10 mM PBS medium.

[3] = Fluorescent solution phase glucose responsive assay (pH 7.4, 298 K)
Protocol: Fluorescence spectroscopy was performed on either a HORIBA Duetta or BMG Labtech CLARIOstar plus plate reader. Emission spectra were obtained using the appropriate excitation wavelength and at a temperature of either 298 or 310 K and at pH 7.4 unless otherwise stated. Data collection and analysis were performed using EzSpec software by HORIBA or CLARIOstar MARS software by BMG Labtech. Further analysis and processing were performed in Microsoft Excel.
A solution of GBM and FIM at the required concentrations were created in the appropriate media. The emission spectrum of the assay was then acquired by exciting at the designated excitation wavelength to obtain the baseline emission intensity for the assay. Aliquots of 2 M D-glucose (in the same media) were then added to give the required final glucose concentrations (e.g. 15 μL of 2 M D-glucose in 3 mL gives a final D-glucose concentration of 10 mM) and the assay allowed to reach equilibration. The emission spectra were collected after each addition of D-glucose and compared to the original baseline emission, monitoring at the typical emission maximum (Emmax), and the percentage increase or decrease recorded. Emission spectra acquired on either a Horiba Duetta fluorometer or Clariostar plus plate reader.
The glucose responsive fluorescence emission for different combinations of glucose binding molecules (GBM) and fluorescent inhibitor molecules (FIM) at various concentrations and in various media was tested as described above. All results obtained at pH 7.4 and 298 K unless otherwise stated.
All results obtained at pH 7.4 and 298 K unless otherwise stated.
Table 4 provides the composition of the assay media used as the code assigned to each media as used in Tables 1 to 3.

[4] = 20 mM D-glucose, GBM39 50 uM, FIM 2 uM, Ex 470/Emmax 530 nm, hydrogel D (azido PEG star polymer)
[5] = 50 mM D-glucose, GBM39 50 uM, FIM 2 uM, Ex 470/Emmax 530 nm, hydrogel D (azido PEG star polymer)
[6] = 60 mM D-glucose, GBM39 50 uM, FIM 2 uM, Ex 470/Emmax 530 nm, hydrogel D (azido PEG star polymer)
[7] = 80 mM D-glucose, GBM39 50 uM, FIM 2 uM, Ex 470/Emmax 530 nm, hydrogel D (azido PEG star polymer)
[8] = 100 mM D-glucose, GBM39 50 uM, FIM 2 uM, Ex 470/Emmax 530 nm, hydrogel D (azido PEG star polymer)

C#CCCC(=O)N[C@@H](Cc1cn(CCOCCOCCOCCOc2ccc(CCO[C@@H]3O[C@H](CO)[C@@H](O)[C@H](O)[C@H]3O)cc2)nn1)C(=O)NCC(=O)Nc1ccc2c(c1)C(=O)OC21c2ccc(O)cc2Oc2cc(O)ccc21 [FIM1]
Change in Emmax for FIM at a particular D-glucose concentration ([1]; 20 mM D-glucose, GBM1 10 uM, FIM 1 uM, Ex 470/Emmax 530 nm, hydrogel D (azido PEG star polymer)): 10%
Change in Emmax for FIM at a particular D-glucose concentration ([1]; 50 mM D-glucose, GBM1 10 uM, FIM 1 uM, Ex 470/Emmax 530 nm, hydrogel D (azido PEG star polymer)): 20%
Reversibility of emission on cycling (FIG. 5) ([1]; hydrogel D with GBM1 50 μM and FIM1 5 μM pre-incorporated, cycling 10 mM PBS / 20 mM D-glucose, 310 K, pH 7.4): shows reversibility of hydrogel

O=C(CNC(=O)[C@H](Cc1cn(CCOCCOCCOCCOc2ccc(CCO[C@@H]3O[C@H](CO)[C@@H](O)[C@H](O)[C@H]3O)cc2)nn1)NC(=O)OC[C@@H]1[C@@H]2CCC#CCC[C@@H]21)Nc1ccc2c(c1)C(=O)OC21c2ccc(O)cc2Oc2cc(O)ccc21 [FIM17]
Change in Emmax for FIM at a particular D-glucose concentration ([1]; 20 mM D-glucose, GBM30 100 uM, FIM 10 uM, Ex 480/Emmax 520 nm, hydrogel H (amino azide dextran/PEG)): 120%
Change in Emmax for FIM at a particular D-glucose concentration [1, 4]: 70%
Change in Emmax for FIM at a particular D-glucose concentration [1, 5]: 175%
Change in Emmax for FIM at a particular D-glucose concentration [1, 6]: 215%
Change in Emmax for FIM at a particular D-glucose concentration [1, 7]: 295%
Change in Emmax for FIM at a particular D-glucose concentration [1, 8]: 380%

C#CCCC(=O)NCCCC[C@H](NC(=O)[c-]1cccc1)C(=O)NCCOCCOCCOCCn1cc(-c2ccc(CCO[C@@H]3O[C@H](CO)[C@@H](O)[C@H](O)[C@H]3O)cc2)nn1.[Fe+2].c1cc[cH-]c1 [FIM38]
Applied potential ([2]; 0 mM D-glucose, GBM 0 mM): 0.327 V
Current response ([2]; 0 mM D-glucose, GBM 0 mM): −4.25 ×10^−6 A
Applied potential ([2]; 0 mM D-glucose, GBM15 1 mM): 0.280 V
Current response ([2]; 0 mM D-glucose, GBM15 1 mM): −3.1 ×10^−6 A
Applied potential ([2]; 1 mM D-glucose, GBM15 1 mM): 0.285 V
Current response ([2]; 1 mM D-glucose, GBM15 1 mM): −3.75 ×10^−6 A
Applied potential ([2]; 2 mM D-glucose, GBM15 1 mM): 0.300 V
Current response ([2]; 2 mM D-glucose, GBM15 1 mM): −4.25 ×10^−6 A
Applied potential ([2]; 3 mM D-glucose, GBM15 1 mM): 0.306 V
Current response ([2]; 3 mM D-glucose, GBM15 1 mM): −4.4 ×10^−6 A
Applied potential ([2]; 4 mM D-glucose, GBM15 1 mM): 0.310 V
Current response ([2]; 4 mM D-glucose, GBM15 1 mM): −4.5 ×10^−6 A
Applied potential ([2]; 5 mM D-glucose, GBM15 1 mM): 0.310 V
Current response ([2]; 5 mM D-glucose, GBM15 1 mM): −4.5 ×10^−6 A
Glucose responsive cyclic voltammetry (FIG. 10) ([2]; GBM15 1 mM and FIM38 0.5 mM in 10 mM PBS, addition of D-glucose): shows a shift in both applied potential (V) and current response (A)

C[N+](C)(C)[C@@H](CCCCn1cc(C[C@H](NC(=O)OC[C@@H]2[C@@H]3CCC#CCC[C@@H]32)C(=O)NCCOCCOCCn2cc(CNC(=O)c3ccc4c(c3)C(=O)OC43c4ccc(O)cc4Oc4cc(O)ccc43)nn2)nn1)C(=O)NCC(CO[C@@H]1O[C@H](CO)[C@@H](O)[C@H](O)[C@H]1O)c1ccccc1.O=CO (some centres unmarked) [FIM47]
Change in Emmax for FIM at a particular D-glucose concentration [1, 4]: 40%
Change in Emmax for FIM at a particular D-glucose concentration [1, 5]: 100%
Change in Emmax for FIM at a particular D-glucose concentration [1, 6]: 120%
Change in Emmax for FIM at a particular D-glucose concentration [1, 7]: 160%
Change in Emmax for FIM at a particular D-glucose concentration [1, 8]: 190%
Change in Emmax for FIM at a particular D-glucose concentration ([3]; 5 mM D-glucose, GBM15 50 μM, FIM 5 μM, medium B, Ex 470 nm, Emmax 520 nm): 130%
Change in Emmax for FIM at a particular D-glucose concentration ([3]; 5 mM D-glucose, GBM40 20 uM, FIM 5 uM, Ex 470/Emmax 520 nm, medium B (10 mM PBS)): 265%
Change in Emmax for FIM at a particular D-glucose concentration ([3]; 10 mM D-glucose, GBM15 50 μM, FIM 5 μM, medium B, Ex 470 nm, Emmax 520 nm): 190%
Change in Emmax for FIM at a particular D-glucose concentration ([3]; 10 mM D-glucose, GBM40 20 uM, FIM 5 uM, Ex 470/Emmax 520 nm, medium B (10 mM PBS)): 410%
Change in Emmax for FIM at a particular D-glucose concentration ([3]; 20 mM D-glucose, GBM15 50 μM, FIM 5 μM, medium B, Ex 470 nm, Emmax 520 nm): 260%
Change in Emmax for FIM at a particular D-glucose concentration ([3]; 20 mM D-glucose, GBM40 20 uM, FIM 5 uM, Ex 470/Emmax 520 nm, medium B (10 mM PBS)): 555%
Change in Emmax for FIM at a particular D-glucose concentration ([3]; 40 mM D-glucose, GBM15 50 μM, FIM 5 μM, medium B, Ex 470 nm, Emmax 520 nm): 310%
Change in Emmax for FIM at a particular D-glucose concentration ([3]; 40 mM D-glucose, GBM40 20 uM, FIM 5 uM, Ex 470/Emmax 520 nm, medium B (10 mM PBS)): 710%
Change in Emmax for FIM at a particular D-glucose concentration ([3]; 60 mM D-glucose, GBM15 50 μM, FIM 5 μM, medium B, Ex 470 nm, Emmax 520 nm): 340%
Change in Emmax for FIM at a particular D-glucose concentration ([3]; 80 mM D-glucose, GBM15 50 μM, FIM 5 μM, medium B, Ex 470 nm, Emmax 520 nm): 350%
Change in Emmax for FIM at a particular D-glucose concentration ([3]; 80 mM D-glucose, GBM40 20 uM, FIM 5 uM, Ex 470/Emmax 520 nm, medium B (10 mM PBS)): 860%

C#CCN(C)c1ccc2nc3ccc(N(C)Cc4cn(CC(CO[C@H]5O[C@@H](CO)[C@H](O)[C@@H](O)[C@@H]5O)c5ccccc5)nn4)cc3[s+]c2c1 (some centres unmarked) [FIM52]
Applied potential ([2]; 1 mM D-glucose, GBM15 1 mM): −0.287 V
Current response ([2]; 1 mM D-glucose, GBM15 1 mM): −9.11 ×10^−6 A
Applied potential ([2]; 2 mM D-glucose, GBM15 1 mM): −0.258 V
Current response ([2]; 2 mM D-glucose, GBM15 1 mM): −9.52 ×10^−6 A
Applied potential ([2]; 10 mM D-glucose, GBM15 1 mM): −0.239 V
Current response ([2]; 10 mM D-glucose, GBM15 1 mM): −10.0 ×10^−6 A
Applied potential ([2]; 20 mM D-glucose, GBM15 1 mM): −0.231 V
Current response ([2]; 20 mM D-glucose, GBM15 1 mM): −11.1 ×10^−6 A
Applied potential ([2]; 50 mM D-glucose, GBM15 1 mM): −0.231 V
Current response ([2]; 50 mM D-glucose, GBM15 1 mM): −11.4 ×10^−6 A
